# Measurements reported in patent US9630947B2, “Therapeutic compounds and related methods of use” (OTSUKA PHARMACEUTICAL CO., LTD., priority 2009, dated 2017).
# Target: T1, purified STEP46 enzyme (Homo sapiens, UniProt P54829)
# T1 sequence (P54829 1-565): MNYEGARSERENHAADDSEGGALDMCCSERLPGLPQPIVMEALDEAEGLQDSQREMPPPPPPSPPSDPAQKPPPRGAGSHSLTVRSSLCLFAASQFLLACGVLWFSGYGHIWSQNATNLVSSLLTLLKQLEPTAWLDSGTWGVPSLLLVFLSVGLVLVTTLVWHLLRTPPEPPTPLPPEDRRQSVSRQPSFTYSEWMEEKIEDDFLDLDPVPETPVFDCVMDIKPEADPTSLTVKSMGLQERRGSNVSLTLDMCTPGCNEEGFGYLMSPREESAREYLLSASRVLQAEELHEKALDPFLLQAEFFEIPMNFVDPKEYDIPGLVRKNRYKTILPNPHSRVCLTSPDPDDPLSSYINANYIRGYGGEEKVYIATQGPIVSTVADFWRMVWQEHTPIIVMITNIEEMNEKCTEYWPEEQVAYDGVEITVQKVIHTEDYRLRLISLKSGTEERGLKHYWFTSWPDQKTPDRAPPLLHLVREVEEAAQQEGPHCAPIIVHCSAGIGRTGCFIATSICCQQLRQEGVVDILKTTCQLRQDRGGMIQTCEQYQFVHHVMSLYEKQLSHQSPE
# Assay: STEP46 biochemical assay (DiFMUP fluorescence phosphatase assay)
# Conditions: DiFMUP 10 μM, read-out: STEP IC50
# Method in brief: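 Compounds preincubated 30 min at room temperature with purified STEP46 (1 ng/well) in 50 mM Hepes, 1 mM DTT, 0.02% Brij35, then 10 μM DiFMUP (final) added for 90 min at 27 °C; 2% DMSO, fluorescence at 360/460 nm. IC50 from four-parameter fit of % inhibition; activators reported as negative % inhibition at 25, 50 and 100 uM.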
row,IC50 [nM],SMILES
1,1000 to 10000,COc1ccc2nc(-c3cccnc3)nc(Nc3ccc4ccoc4c3)c2c1 [Compound 314]
2,< 1000,FC1(F)Oc2ccc(Nc3nc(-c4cccnc4)nc4ccc(-c5cccnc5)cc34)cc2O1 [Compound 312]
3,1000 to 10000,CCc1sc(Nc2nc(-c3cccnc3)nc3ccc(OC)cc23)nc1-c1ccccc1 [Compound 463]
4,1000 to 10000,CN(C)c1nc(-c2cccnc2)nc2ccc(-c3cccc(F)c3)cc12 [Compound 1324]
5,1000 to 10000,O=c1ccc2ccc(Nc3nc(-c4cccnc4)nc4ccc(-c5cccnc5)cc34)cc2[nH]1 [Compound 352]
6,1000 to 10000,Fc1ccc(-c2ccc3nc(-c4cccnc4)nc(Nc4ccc(F)c(Cl)c4)c3c2)cc1F [Compound 672]
7,< 1000,COc1cc(Cl)cc(-c2ccc3nc(-c4cccnc4)nc(Nc4ccc(F)c(Cl)c4)c3c2)c1 [Compound 663]
8,< 1000,COc1ccc(-c2ccc3nc(-c4cccnc4)nc(Nc4ccc(F)c(Cl)c4)c3c2)c(OC)n1 [Compound 655]
9,1000 to 10000,COc1ccc2nc(-c3ccnnc3)nc(Nc3ccc(F)c(Cl)c3)c2c1 [Compound 1185]
